Measured values from ChEMBL document CHEMBL3396989, “Discovery of hydroxyaniline amides as selective Extracellular Regulated Kinase (Erk) inhibitors” (Bioorg Med Chem Lett, 2015).

How the values were obtained:
[1] = molecular target: T1, Mitogen-activated protein kinase 1 (Homo sapiens, UniProt P28482); test: ATP competitive inhibition of activated Erk2 (unknown origin) by biochemical assay
[2] = molecular target: T1, Mitogen-activated protein kinase 1; test: Binding affinity to activated Erk2 (unknown origin) by TdF assay
[3] = molecular target: T1, Mitogen-activated protein kinase 1; test: Binding affinity to non-phosphorylated Erk2 (unknown origin) by TdF assay
[4] = molecular target: T1, Mitogen-activated protein kinase 1; test: Inhibition of non-activated Erk2 (unknown origin) using activating Mek1 and peptide substrate by coupled Erk2 assay
[5] = molecular target: T1, Mitogen-activated protein kinase 1; test: Inhibition of activated Erk2 (unknown origin) by biochemical assay

T1 sequence (P28482 whole entry): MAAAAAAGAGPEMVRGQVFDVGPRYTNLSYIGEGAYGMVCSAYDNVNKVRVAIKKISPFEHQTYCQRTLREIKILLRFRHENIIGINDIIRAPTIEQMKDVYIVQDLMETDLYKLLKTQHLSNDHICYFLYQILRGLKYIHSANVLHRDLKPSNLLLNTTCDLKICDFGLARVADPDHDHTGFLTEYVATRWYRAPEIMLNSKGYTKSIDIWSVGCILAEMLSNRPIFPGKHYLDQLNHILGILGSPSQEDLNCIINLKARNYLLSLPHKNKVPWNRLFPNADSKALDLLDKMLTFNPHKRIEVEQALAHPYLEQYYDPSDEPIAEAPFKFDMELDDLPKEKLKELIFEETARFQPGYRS

Row | Structure (SMILES) | IC50 [4] | IC50 ([5]; read-out: IC50) | further results
1 | CC(=O)c1ccc(N2CCN(C(=O)CN3CCC(C(=O)Nc4ccc(O)cc4)C3)CC2)cc1 (stereo not drawn) | – | – | IC50 [1]: 15.2 µM; Kd [2]: 1900 nM; Kd [3]: 1060 nM
2 | O=C(Nc1ccc(O)c(Cl)c1)[C@@H]1CCN(CC(=O)N2CCN(c3ccc(-c4ccc(F)cc4)cc3)CC2)C1 | 19000 nM | 100000 nM | –
3 | O=C(Nc1ccc(O)c(Cl)c1)[C@@H]1CCN(CC(=O)N2CCN(c3ccc(-c4cccc(F)c4)cc3)CC2)C1 | 2200 nM | – | IC50 [5]: Not Active
4 | O=C(Nc1ccc(O)c(Cl)c1)[C@@H]1CCN(CC(=O)N2CCN(c3ccc(-c4ccccc4F)cc3)CC2)C1 | 1200 nM | – | IC50 [5]: Not Active
5 | COc1ccc(-c2ccc(N3CCN(C(=O)CN4CC[C@@H](C(=O)Nc5ccc(O)c(Cl)c5)C4)CC3)cc2)cc1 | 2300 nM | 50000 nM | –
6 | O=C(Nc1ccc(O)c(Cl)c1)[C@@H]1CCN(CC(=O)N2CCN(c3ccc(-c4cccs4)cc3)CC2)C1 | 2500 nM | 20000 nM | –
7 | O=C(Nc1ccc(O)c(Cl)c1)[C@@H]1CCN(CC(=O)N2CCN(c3ccc(-c4cnco4)cc3)CC2)C1 | 1000 nM | 12000 nM | –
8 | O=C(Nc1ccc(O)c(Cl)c1)[C@@H]1CCN(CC(=O)N2CCN(c3ccc(-c4ncccn4)cc3)CC2)C1 | 20 nM | 410 nM | –
9 | CCc1cnc(-c2ccc(N3CCN(C(=O)CN4CC[C@@H](C(=O)Nc5ccc(O)c(Cl)c5)C4)CC3)cc2)nc1 | 5 nM | 100 nM | –
10 | O=C(Nc1ccc(O)c(Cl)c1)[C@@H]1CCN(CC(=O)N2CCN(c3ccc(-c4ncc(F)cn4)cc3)CC2)C1 | 36 nM | 1760 nM | –
11 | O=C(Nc1ccc(O)c(Cl)c1)[C@@H]1CCN(CC(=O)N2CCN(c3ccc(-c4cncnc4)cc3)CC2)C1 | 73 nM | 1800 nM | –
12 | COc1ncc(-c2ccc(N3CCN(C(=O)CN4CC[C@@H](C(=O)Nc5ccc(O)c(Cl)c5)C4)CC3)cc2)cn1 | 71 nM | 2670 nM | –
13 | O=C(Nc1ccc(O)c(Cl)c1)[C@@H]1CCN(CC(=O)N2CCN(c3ccc(-c4cnccn4)cc3)CC2)C1 | 14 nM | 130 nM | –
14 | O=C(Nc1ccc(O)c(Cl)c1)[C@@H]1CCN(CC(=O)N2CCN(c3ccc(-c4nccs4)cc3)CC2)C1 | 300 nM | 9340 nM | –
15 | O=C(Nc1ccc(O)c(C(F)(F)F)c1)[C@@H]1CCN(CC(=O)N2CCN(c3ccc(-c4ncccn4)cc3)CC2)C1 | 5 nM | 100 nM | –
16 | O=C(Nc1ccc(O)c(C2CC2)c1)[C@@H]1CCN(CC(=O)N2CCN(c3ccc(-c4ncccn4)cc3)CC2)C1 | 36 nM | 1760 nM | –
17 | CC(C)c1cc(NC(=O)[C@@H]2CCN(CC(=O)N3CCN(c4ccc(-c5ncccn5)cc4)CC3)C2)ccc1O | 73 nM | 1800 nM | –
18 | O=C(Nc1ccc(O)c(F)c1)[C@@H]1CCN(CC(=O)N2CCN(c3ccc(-c4ncccn4)cc3)CC2)C1 | 71 nM | 2670 nM | –
19 | CC(=O)c1ccc(N2CCN(C(=O)CN3CC[C@@H](C(=O)Nc4ccc(O)cc4)C3)CC2)cc1 | – | 6000 nM | –
